Earlier results in paper PMC12580894 (Cancer Research Communications, 2025).

Key:
[1] = test system: patients with advanced solid tumours; details: berzosertib with cisplatin
[2] = test system: untreated advanced urothelial carcinoma

CNCc1ccc(-c2cc(-c3nc(-c4ccc(S(=O)(=O)C(C)C)cc4)cnc3N)on2)cc1 [berzosertib]
patients with a confirmed PR ([1]; despite prior platinum exposure, 31 patients): Two | most common AEs ([1]; phase I): hematologic in nature | DLTs observed ([1]; phase I, 31 patients): a grade 3 hypersensitivity reaction and a grade 3 increase in alanine aminotransferase | Hematologic toxicity rates ([2]; GC plus berzosertib versus GC alone): higher | clinical benefit upon the addition of berzosertib ([2]; gemcitabine and cisplatin (GC) with or without berzosertib): no clinical benefit
